Data taken from patent US20040162345A1, “Compounds with NEP/MP-inhibitory activity and uses thereof” (Solvay Pharmaceuticals GmbH, priority 2001, published 2004).
Entries after “also recorded” stand apart in the source; their conditions may differ. Where two headings read alike, the source gives them in different places.

Assays:
[1] = target: T1, His6-tagged IGS5 ectodomain (Homo sapiens, UniProt Q495T6); experiment: IGS5 enzyme inhibition assay (fluorescence-quenched big-ET-1 analog, HPLC); format: biochemical; details: for IC50: conversion of labeled fluorescent big-ET-1 analog
T1 construct: Enzyme: IGS-5 (sol hu)(his)6; or: His6-tagged IGS5 ectodomain;; made in house; host or cells: Sf9 insect cells, recombinant baculovirus IGBV73, purified from culture supernatant
T1 sequence (Q495T6 49-779 limits assumed): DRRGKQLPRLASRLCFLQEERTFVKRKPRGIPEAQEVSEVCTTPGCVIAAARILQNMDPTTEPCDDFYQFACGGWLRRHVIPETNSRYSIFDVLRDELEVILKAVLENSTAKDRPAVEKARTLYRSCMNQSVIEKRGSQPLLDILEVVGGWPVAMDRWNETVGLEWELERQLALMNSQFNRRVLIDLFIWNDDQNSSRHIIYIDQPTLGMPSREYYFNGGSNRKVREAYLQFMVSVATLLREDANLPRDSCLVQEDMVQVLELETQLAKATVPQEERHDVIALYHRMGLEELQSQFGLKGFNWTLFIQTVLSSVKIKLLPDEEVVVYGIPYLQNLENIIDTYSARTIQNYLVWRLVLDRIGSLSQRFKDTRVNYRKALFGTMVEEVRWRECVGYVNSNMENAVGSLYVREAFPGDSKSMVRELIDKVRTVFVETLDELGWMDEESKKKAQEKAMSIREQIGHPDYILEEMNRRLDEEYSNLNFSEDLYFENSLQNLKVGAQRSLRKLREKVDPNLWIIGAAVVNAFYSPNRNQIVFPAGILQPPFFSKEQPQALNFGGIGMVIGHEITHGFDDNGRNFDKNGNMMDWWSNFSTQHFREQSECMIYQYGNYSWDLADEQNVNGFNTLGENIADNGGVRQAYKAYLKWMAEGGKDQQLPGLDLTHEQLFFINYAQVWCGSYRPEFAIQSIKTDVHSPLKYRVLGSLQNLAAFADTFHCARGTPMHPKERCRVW
Experimental: The enzymatic activity of IGS5 polypeptides of the invention was tested with regard to the metabolism of biologically active peptides. In particular it was tested whether these IGS5 polypeptides may act on a variety of vasoactive peptides known in the state of the art e.g. such like atrial natriuretic peptide (ANP), bradykinin, big-endothelin (big-ET-1), endothelin (ET-1), substance P and angiotensin-1. In the context of the present invention in particular it was tested whether the IGS5 ectodomain, which is a novel human metalloprotease, hydrolyzes said vasoactive peptides. For comparison the assay was also performed for a known member of the metalloprotease family which was described earlier as soluble secreted endopeptidase (SEP) by Emoto et al. (J. Biol. Chem., Vol. 274 (1999): pp. 32469-32477). Furthermore, it was tested whether the activity of IGS5 to convert a big-ET-1 analog (the so-called 17 aa big-ET-1) may be inhibited by reference compounds that are used to determine the inhibition properties with regard to enzymes having ECE and/or NEP-characteristics.
Enzyme: IGS-5 (sol hu)(his)6; or: His6-tagged IGS5 ectodomain;
stock solution: 53 μg/ml in 20 mM HEPES pH 7.2, 5% glycerol, 0.005% Tween20, 100 mM NaCl, purity >99%; storage at 4° C.
working solution: stock solution diluted with assay buffer to 10 μg/ml.
Substrate: Mca-Asp-Ile-Ala-Trp-Phe-Dpa-[…]COOH;
Fluorescence-quenched big-ET-1 analog;
Assay buffer: 100 mM Tris pH 7.0, 250 mM NaCl.
All test compounds were dissolved in DMSO at 10 mM and were further diluted with assay buffer.
A quantity of 70 μl of the assay buffer, of 10 μl enzyme working solution and of 10 μl test compound solution were mixed in an Eppendorf vial and preincubated at 37° C. for 15 minutes. Then, 10 μl substrate stock solution was added and the reaction mixture was incubated at 37° C. for 60 minutes to allow for enzymatic hydrolysis. Subsequently the enzymatic reaction was terminated by heating at 95° C. for 5 minutes. After centrifugation (Heraeus Biofuge B, 3 min) the supernatant was subjected to HPLC analysis.
In order to separate the remaining substrate from the cleavage products reversed phase HPLC technique was used with a CC 125/4 Nucleosil 300/5 C18 RP column and a CC 8/4 Nucleosil 100/5 C18 precolumn (commercially available from Macherey-Nagel, Düren, Germany). Thus, 60 μl of the reaction samples obtained in Example 7b were injected into the HPLC, and the column was eluted at a flow rate of 1 ml/min by applying the following gradient and solutions: […]
The increasing fluorescence signal of the HPLC-peak of the peptide with the unquenched Mca-fluorophor after hydrolysis was taken as the basis for any calculation.
This signal was compared for the samples with and without inhibitor and % inhibition was calculated on basis of the respective peak areas.
% inhib=100*(1−Ainhib/Acontrol)
All samples were run in duplicate and mean values were used.
(§1) Furthermore, the potency of metalloprotease inhibitor compounds and reference compounds to suppress the conversion of big-ET to ET-1 was examined as described in this example 7, using a labeled fluorescent big-ET-1 analog. The procedures applied in the enzyme assays are described above in the examples 4 with regard to IGS5, in example 5 with regard to NEP, and in example 6 with regard to ECE.

healthy volunteers = experiment: Double-blind placebo-controlled clinical study, big-ET-induced pressure response; format: in vivo, human; details: thirteen healthy volunteers
Experimental: (§2) To proof the concept of clinical efficacy and safety of compound Ia-2 in man, 6 clinical trials were conducted in healthy volunteers and 2 proof of concept trials were conducted in patients: One randomized, placebo-controlled double-blind trial in patients with hypertension (N=191) and one open, baseline controlled pilot trial in patients with congestive heart failure (N=29). […] In the Intent-to-treat patient population (ITT), office diastolic blood pressure versus placebo decreased by −6.9 mmHg (last value under treatment; p<0.001) and office systolic blood pressure versus placebo decreased by −9.2 mmHg (last value under treatment; p=0.003) at the highest dose investigated (200 mg bid).

[2] = test system: patients with congestive heart failure; experiment: Open, baseline controlled pilot trial in patients with congestive heart failure; format: in vivo, human
Experimental: as §2

[3] = test system: patients with WHO grade I-II hypertension; experiment: Randomized, placebo-controlled double-blind 4-week trial in patients with hypertension; format: in vivo, human; details: 200 mg bid, ITT, last value under treatment
Experimental: as §2

volunteers and patients = experiment: Clinical trials, plasma ANP and cGMP following oral dosing; format: in vivo, human
Experimental: as §2

[4] = target: Neutral endopeptidase (E.C. 3.4.24.11) (Sus scrofa, UniProt A0A4X1SQE6); experiment: NEP enzyme inhibition assay (methionin-enkephalin substrate, HPLC); format: biochemical, pig
Experimental: Neutral endopeptidase (E.C. 3.4.24.11) was prepared from pig kidney cortex according to the method of Gee et al. (Biochem J 1985 May 15;228(1):119-26) and purified as reported by Relton et al. (Biochem J 1983 Dec. 1;215(3):519-23). For the enzyme inhibition assay 10 ng of the purified enzyme, 20 μM substrate (methionin-enkephalin) and various inhibitor concentrations were used. The assay buffer was 50 mM Tris-(hydroxymethyl)-aminomethan/HCl pH 7.4, the total assay volume was 100 μl. After a preincubation period of 5 min of enzyme and inhibitor, the substrate was added and subsequently a second incubation phase for enzyme induced substrate hydrolysis at 37° C. for 30 min was initiated. The enzymatic reaction was stopped by heating at 95° C. for 5 min. After centrifugation the supernatant was subjected to HPLC. The products of enzymatic substrate hydrolysis were separated from the native substrate by HPLC technique and the inhibitor potency calculated by comparing the peak areas of the products with the peak area of native substrate for both, the samples with and without inhibitor (control). Blanks without enzyme, controls without inhibitor, samples with inhibitor solvent instead of the inhibitor and samples with a standard inhibitor were added to each assay run.
as §1

[5] = target: T2, Recombinant human COOH-terminal His6-tagged endothelin converting enzyme-1 (Homo sapiens, UniProt P42892); experiment: ECE enzyme inhibition assay (17 amino acid truncated big endothelin-1, HPLC); format: biochemical
T2 construct: His6 (C); purchased Innogenetics, Ghent, Belgium; host or cells: Sf9 cells
T2 sequence (P42892 1-770): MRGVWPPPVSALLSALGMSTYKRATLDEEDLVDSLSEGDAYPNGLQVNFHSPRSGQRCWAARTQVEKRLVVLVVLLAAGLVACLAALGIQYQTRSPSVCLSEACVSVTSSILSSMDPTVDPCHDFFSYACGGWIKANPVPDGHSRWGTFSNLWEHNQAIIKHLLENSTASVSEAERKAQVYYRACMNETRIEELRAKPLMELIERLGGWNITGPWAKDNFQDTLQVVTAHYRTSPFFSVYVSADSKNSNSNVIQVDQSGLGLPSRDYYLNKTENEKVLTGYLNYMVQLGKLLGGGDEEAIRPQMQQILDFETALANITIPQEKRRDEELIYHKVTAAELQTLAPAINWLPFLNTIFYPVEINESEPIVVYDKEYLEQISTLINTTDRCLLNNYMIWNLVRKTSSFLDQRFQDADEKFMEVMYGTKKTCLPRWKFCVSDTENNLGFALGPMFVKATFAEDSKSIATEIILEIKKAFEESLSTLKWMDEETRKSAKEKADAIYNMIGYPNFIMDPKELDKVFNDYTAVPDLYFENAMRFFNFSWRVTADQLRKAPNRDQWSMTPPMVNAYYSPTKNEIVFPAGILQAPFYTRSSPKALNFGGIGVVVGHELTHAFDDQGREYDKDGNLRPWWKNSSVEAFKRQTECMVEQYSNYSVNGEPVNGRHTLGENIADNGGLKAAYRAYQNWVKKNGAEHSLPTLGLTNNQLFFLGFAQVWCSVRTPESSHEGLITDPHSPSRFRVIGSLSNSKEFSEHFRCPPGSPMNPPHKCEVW
Experimental: The enzyme inhibition assay comprised enzyme (2.8 μg), 5 μg substrate (moderately modified 17 amino acid truncated big endothelin-1), inhibitor at various final concentrations and 100 mM Tris-buffer (Tris-hydroxymethl-aminomethan/HCl, pH 7.0+150 mM NaCl) in a final volume of 100 μl. Pre-incubation of enzyme with inhibitor for 15 min at 37° C. was performed before substrate addition and incubation (60 min at 37° C.) for enzymatic hydrolysis. The enzymatic reaction was stopped by heating at 95° C. for 5 min. After centrifugation the supernatant was subjected to HPLC for separation of enzymatic hydrolysis products from undegraded substrate. % inhibition was calculated on the basis of peak areas for products and uncleaved substrate for the inhibited reaction in comparison to the control (without inhibitor). Blanks without enzyme, controls without inhibitor, samples with inhibitor solvent instead of the inhibitor and samples with a standard inhibitor were added to each assay run.

Sequence of Neutral endopeptidase (E.C. 3.4.24.11) (A0A4X1SQE6 entry or part of it): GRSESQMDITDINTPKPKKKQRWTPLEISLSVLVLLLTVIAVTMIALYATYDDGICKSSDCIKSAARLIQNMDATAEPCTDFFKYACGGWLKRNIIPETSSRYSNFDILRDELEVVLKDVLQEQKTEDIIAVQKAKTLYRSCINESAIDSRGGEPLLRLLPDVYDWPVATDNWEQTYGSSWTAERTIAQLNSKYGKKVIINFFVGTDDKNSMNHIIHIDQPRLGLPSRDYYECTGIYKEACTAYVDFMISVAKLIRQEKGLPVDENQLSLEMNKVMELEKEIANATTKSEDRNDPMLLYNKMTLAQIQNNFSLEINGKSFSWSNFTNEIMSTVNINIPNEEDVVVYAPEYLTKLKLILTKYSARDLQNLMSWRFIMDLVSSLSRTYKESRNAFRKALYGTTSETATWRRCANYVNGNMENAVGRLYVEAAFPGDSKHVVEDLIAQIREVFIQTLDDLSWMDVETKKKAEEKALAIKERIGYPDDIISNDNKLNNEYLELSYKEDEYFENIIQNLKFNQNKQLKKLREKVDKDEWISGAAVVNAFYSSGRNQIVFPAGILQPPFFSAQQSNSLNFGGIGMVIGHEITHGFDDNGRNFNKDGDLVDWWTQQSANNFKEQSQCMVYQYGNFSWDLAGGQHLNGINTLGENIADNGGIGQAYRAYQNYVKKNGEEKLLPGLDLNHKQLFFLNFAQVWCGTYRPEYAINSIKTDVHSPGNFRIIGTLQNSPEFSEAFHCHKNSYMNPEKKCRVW

Row | IC50 [1] [nM] | IC50 ([4]; 20 μM methionin-enkephalin, read-out: NEP IC50) [nM] | Compound | ANP levels (healthy volunteers) | ET-1 levels (healthy volunteers) | big-ET levels (healthy volunteers; compared to placebo group) | big-ET-induced pressure response (healthy volunteers; versus placebo) | change of plasma big-ET from baseline ([2]; 200 mg) | plasma levels of big-ET following administration ([2]; 200 mg, baseline 4.9 fmol/ml) [fmol/mL] | change of plasma big-ET from baseline ([2]; 400 mg) | plasma levels of big-ET following administration ([2]; 400 mg, baseline 2.3 fmol/ml) [fmol/mL] | office diastolic blood pressure versus placebo ([3]; p<0.001) [mmHg] | office systolic blood pressure versus placebo ([3]; p=0.003) [mmHg] | plasma concentrations of ANP and its second messenger cGMP (volunteers and patients) | inhibition of IGS5 activity (in words) [1] | IC50 [5] [nM] | IC50 [4] [nM]
1 | 1.2 |  | CCOC(=O)[C@H](CCc1ccccc1)CC1(C(=O)N[C@H]2CCc3ccccc3N(CC(=O)O)C2=O)CCCC1 [compound Ia-2, (3S,2′R)-3-{1-[2′-(ethoxycarbonyl)-4′-phenylbutyl]-cyclopentane-1-carbonylamino}-2,3,4,5-tetrahydro-2-oxo-1H-1-benzazepine-1-acetic acid] | clear dose related increase | did not increase | increased dose dependently | dose-dependently inhibited | +32.6% | 6.5 | +56% | 3.5 | −6.9 | −9.2 | significantly increased and sustained |  |  | 
2 | 1300 | 42 | O=C(O)C(Cc1ccc2c(c1)oc1ccccc12)NCP(=O)(O)O (centres unmarked) [CGS-35066] |  |  |  |  |  |  |  |  |  |  |  | Inhibition of IGS5 could be observed at higher concentrations only | 5 | 

Row | Compound | IC50 [1] [nM] | IC50 ([4]; 20 μM methionin-enkephalin, read-out: NEP IC50) [nM] | ANP levels (healthy volunteers) | ET-1 levels (healthy volunteers) | big-ET levels (healthy volunteers; compared to placebo group) | big-ET-induced pressure response (healthy volunteers; versus placebo) | change of plasma big-ET from baseline ([2]; 200 mg) | plasma levels of big-ET following administration ([2]; 200 mg, baseline 4.9 fmol/ml) [fmol/mL] | change of plasma big-ET from baseline ([2]; 400 mg) | plasma levels of big-ET following administration ([2]; 400 mg, baseline 2.3 fmol/ml) [fmol/mL] | office diastolic blood pressure versus placebo ([3]; p<0.001) [mmHg] | office systolic blood pressure versus placebo ([3]; p=0.003) [mmHg] | plasma concentrations of ANP and its second messenger cGMP (volunteers and patients) | inhibition of IGS5 activity (in words) [1] | IC50 [5] [nM] | IC50 [4] [nM]
3 | O=C(O)CNC(=O)C(CS)Cc1ccccc1 (centres unmarked) [Thiorphan] | > 1000 |  |  |  |  |  |  |  |  |  |  |  |  | no inhibition of IGS5; also recorded: do not affect the activity of IGS5 | > 10000 | 2.4
